One data set in a line: physchem. The source says:
Therefore, propylene glycol was used as a basic solvent in the formulation of the present patent.

For data set [1] the following is noted: hydrolysate; as worded; cited from earlier work.

Counter-ions that a name gives are not always drawn.

In the case of `COc1ccc([C@@H]2Sc3ccccc3N(CCN(C)C)C(=O)[C@@H]2OC(C)=O)cc1` [diltiazem hydrochloride, reference compound], the solubility – broadly, how much of the substance goes into solution per volume – in “physchem” (organic solvent or mixture) was found to be 79 mg/mL.
`COc1ccc([C@@H]2Sc3ccccc3N(CCN(C)C)C(=O)[C@@H]2O)cc1` [deacetyldiltiazem]: in data set [1], the “Activity relative to the activity of diltiazem hydrochloride” value is 20%-40%.
Consider hydroxypropyl methylcellulose, for which the “Solubility in propylene glycol (in words)” value in “physchem” is “insoluble”.
On to sodium carboxymethylcellulose, for which the “Solubility in propylene glycol (in words)” value in the data set “physchem” is on record as “insoluble”.

Source of the values: patent US12102683B2 (Auson Pharmaceuticals, Inc., priority 2022, dated 2024).
